From patent publication US9682061B2, “Methods of treating bacterial infections using oritavancin” (THE MEDICINES COMPANY, priority 2009, dated 2017)
Converted amounts (≈) assume the structure as drawn. Read-outs that look alike come from different tables or passages of the source.

How the values were obtained:
plasma protein = settings: across tested species; Shaw et al. 2008; cited from earlier work
rat serum protein = assay: Serum protein binding estimated from MIC shift, serum vs serum ultrafiltrate (rat); type: in vitro ADME; settings: from mean MICs, broth microdilution, this study
Source text: (§1) Avid binding of oritavancin (ORI) to filtration and dialysis membranes renders most protein binding methodologies unsuitable. To control for any impact of serum components on bacterial growth and antibiotic activity, MIC shifts (from arithmetic drug dilutions) and area under the inhibitory curve (AUIC) shifts (from time-kill assays) were quantified in the presence of serum (SER) compared to SER ultrafiltrate (ULTRA; free of albumin) to estimate ORI binding to serum. In this manner, the extent of reduction in oritavancin activity in serum was related to its degree of serum protein binding. The method was benchmarked using daptomycin and ceftriaxone (Lee et al., Antimicrob Agents Chemother. 35:2505-2508 (1991); Schmidt et al., Antimicrob Agents Chemother. 52:3994-4000 (2008); Yuk et al., Clin Pharmacokinet. 17:223-235 (1989); McKay et al., Evaluation of oritavancin activity in vitro in the presence of human and mouse serum, abstr P1854. Abstr. 19th European Congress of Clinical Microbiology and Infectious Diseases. European Society of Clinical Microbiology and Infectious Diseases, Basel, Switzerland, May 16, 2009).
(§2) Pooled sera from humans, mice and rats were obtained from Equitech-Bio (Kerrville, Tex.); pooled serum from beagle dogs was from Bioreclamation (Liverpool, N.Y.). ULTRA was prepared using Centricon Plus-50 ultrafilters (Millipore, Billerica, Mass.), whose molecular weight cutoff (50 kDa) excludes albumin. ORI stock solutions were prepared following CLSI M100-818 (Clinical and Laboratory Standards Institute. 2008. CLSI document M100-S18). Staphylococcus aureus ATCC 29213 was used as the test isolate at a final inoculum of ˜5×10^5 CFU/mL in both MIC and AUIC studies.
(§3) Arithmetic MICs: Broth microdilution MIC assays with Staphylococcus aureus ATCC 29213 were based on CLSI guidelines (Clinical and Laboratory Standards Institute, 2009, CLSI document M7-A7). Growth media were 95% serum:5% CAMHB and 95% serum ultrafiltrate:5% CAMHB. […] Percent binding in serum was calculated as follows: % Bound=(1−[mean MICultrafiltrate/mean MICserum]×100%

beagle dog serum protein = assay: Serum protein binding estimated from MIC shift, serum vs serum ultrafiltrate (dog); type: in vitro ADME; settings: from mean MICs, broth microdilution, this study
Source text: as §1, §2, §3

human serum protein = assay: Serum protein binding estimated from MIC shift, serum vs serum ultrafiltrate (human); type: in vitro ADME; settings: from mean MICs, broth microdilution, this study
Source text: as §1, §2, §3

mouse serum protein = assay: Serum protein binding estimated from MIC shift, serum vs serum ultrafiltrate (mouse); type: in vitro ADME; settings: mouse, serum
Source text: as §1, §2, §3

S. aureus ATCC 29213 = assay: Broth microdilution MIC with arithmetic drug dilutions; type: cell-based, Staphylococcus aureus; settings: for MIC: Staphylococcus aureus, ATCC29213, mean
Experimental: as §2
Arithmetic MICs: Broth microdilution MIC assays with Staphylococcus aureus ATCC 29213 were based on CLSI guidelines (Clinical and Laboratory Standards Institute, 2009, CLSI document M7-A7). Growth media were 95% serum:5% CAMHB and 95% serum ultrafiltrate:5% CAMHB. Arithmetic dilutions of oritavancin and comparators were used to increase precision of minimum inhibitory concentration (MIC) values relative to doubling dilutions. Percent binding in serum was calculated as follows: % Bound=(1−[mean MICultrafiltrate/mean MICserum]×100%

[1] = Serum protein binding estimated from MIC shift, serum vs serum ultrafiltrate (mouse); type: in vitro ADME; settings: pooled mouse serum compared with serum ultrafiltrate; mouse serum; from mean MICs, broth microdilution; this study; read-out: % Bound (protein binding estimate) (converted)
Source text: as §1, §2, §3

[2] = Serum protein binding from MIC shift, summary across species; type: in vitro ADME, human, mouse, rat, dog; settings: pooled serum compared with serum ultrafiltrate; serum from mouse, rat, and beagle dog; MIC shift; read-out: Serum protein binding estimates, range
Source text: as §1, §2, §3

human serum = settings: cited from earlier work
[3] = 95% dog serum + 5% CAMHB, read-out: MIC, Serum
[4] = 95% dog serum ultrafiltrate + 5% CAMHB, read-out: MIC, Ultrafiltrate
[5] = 95% human serum + 5% CAMHB, read-out: MIC, Serum
[6] = 95% human serum ultrafiltrate + 5% CAMHB, read-out: MIC, Ultrafiltrate
[7] = 95% mouse serum + 5% CAMHB, read-out: MIC, Serum
[8] = 95% mouse serum ultrafiltrate + 5% CAMHB, read-out: MIC, Ultrafiltrate
[9] = 95% rat serum + 5% CAMHB, read-out: MIC, Serum
[10] = 95% rat serum ultrafiltrate + 5% CAMHB, read-out: MIC, Ultrafiltrate
[11] = cation-adjusted Mueller-Hinton broth, CLSI conditions, Dog, read-out: MIC, CAMHB
[12] = cation-adjusted Mueller-Hinton broth, CLSI conditions, Human, read-out: MIC, CAMHB
[13] = cation-adjusted Mueller-Hinton broth, CLSI conditions, Mouse, read-out: MIC, CAMHB
[14] = cation-adjusted Mueller-Hinton broth, CLSI conditions, Rat, read-out: MIC, CAMHB
[15] = mean MIC in 95% dog serum / mean MIC in 95% dog serum ultrafiltrate
[16] = mean MIC in 95% human serum / mean MIC in 95% human serum ultrafiltrate
[17] = mean MIC in 95% mouse serum / mean MIC in 95% mouse serum ultrafiltrate
[18] = mean MIC in 95% rat serum / mean MIC in 95% rat serum ultrafiltrate

| SMILES | % Bound (protein binding estimate) (rat serum protein) | % Bound (protein binding estimate) (beagle dog serum protein) | % Bound (protein binding estimate) (human serum protein) | MIC (S. aureus ATCC 29213; [3]) | MIC (S. aureus ATCC 29213; [4]) | MIC (S. aureus ATCC 29213; [5]) | MIC (S. aureus ATCC 29213; [6]) | MIC (S. aureus ATCC 29213; [7]) | MIC (S. aureus ATCC 29213; [8]) | MIC (S. aureus ATCC 29213; [9]) | MIC (S. aureus ATCC 29213; [10]) | MIC (S. aureus ATCC 29213; [11]) | MIC (S. aureus ATCC 29213; [12]) | MIC (S. aureus ATCC 29213; [13]) | MIC (S. aureus ATCC 29213; [14]) | Mean Fold MIC Increase (S. aureus ATCC 29213; [15]) | Mean Fold MIC Increase (S. aureus ATCC 29213; [16]) | Mean Fold MIC Increase (S. aureus ATCC 29213; [17]) | Mean Fold MIC Increase (S. aureus ATCC 29213; [18]) | further results |
| --- | --- | --- | --- | --- | --- | --- | --- | --- | --- | --- | --- | --- | --- | --- | --- | --- | --- | --- | --- | --- |
| CCCCCCCCCCNCCN[C@@]1(C)C[C@H](O[C@H]2[C@H](Oc3c4cc5cc3Oc3ccc(cc3Cl)[C@@H](O)[C@@H](NC(=O)[C@@H](CC(C)C)NC)C(=O)N[C@@H](CC(N)=O)C(=O)N[C@H]5C(=O)N[C@H]3C(=O)N[C@H](C(=O)N[C@H](C(=O)O)c5cc(O)c(CNCP(=O)(O)O)c(O)c5-c5cc3ccc5O)[C@H](O)c3ccc(c(Cl)c3)O4)O[C@H](CO)[C@@H](O)[C@@H]2O)O[C@@H](C)[C@H]1O [telavancin] | – | – | – | – | – | – | – | – | – | – | – | – | – | – | – | – | – | – | – | Plasma protein binding (plasma protein): approximately 90% |
| CCCCCCCCCC(=O)N[C@@H](Cc1c[nH]c2ccccc12)C(=O)N[C@H](CC(N)=O)C(=O)N[C@@H](CC(=O)O)C(=O)N[C@@H]1C(=O)NCC(=O)N[C@@H](CCCN)C(=O)N[C@@H](CC(=O)O)C(=O)N[C@H](C)C(=O)N[C@@H](CC(=O)O)C(=O)NCC(=O)N[C@H](CO)C(=O)N[C@@H]([C@H](C)CC(=O)O)C(=O)N[C@@H](CC(=O)c2ccccc2N)C(=O)O[C@@H]1C [Daptomycin] | 65.6% | 74.5% | 82.9% | 2.5 µg/mL | 0.638 µg/mL | 3 µg/mL | 0.513 µg/mL | 12.5 µg/mL | 3 µg/mL | 1.56 µg/mL | 0.538 µg/mL | 1 µg/mL (≈ 0.617 µM) | 0.975 µg/mL (≈ 0.602 µM) | 0.975 µg/mL (≈ 0.602 µM) | 1.25 µg/mL (≈ 0.771 µM) | 3.9 fold | 5.8 fold | 4.2 fold | 2.9 fold | % Bound (protein binding estimate) (mouse serum protein): 76.0% |
| CO/N=C(\C(=O)N[C@@H]1C(=O)N2C(C(=O)O)=C(CSc3nc(=O)c(=O)[nH]n3C)CS[C@H]12)c1csc(N)n1 [Ceftriaxone] | 34.0% | 20.9% | 92.6% | 1.38 µg/mL | 1.09 µg/mL | 38.8 µg/mL | 2.88 µg/mL | 6 µg/mL | 3.75 µg/mL | 5.88 µg/mL | 3.88 µg/mL | 5.25 µg/mL (≈ 9.47 µM) | 4.88 µg/mL (≈ 8.8 µM) | 5 µg/mL (≈ 9.02 µM) | 3.5 µg/mL (≈ 6.31 µM) | 1.3 fold | 13.5 fold | 1.6 fold | 1.5 fold | fraction unbound [1]: 0.625; fraction unbound [2]: 0.625 to 0.791; Binding estimate from in vitro microdialysis (human serum): 76.8% |
